Reference: paper PMC6905112, “CtcS, a MarR family regulator, regulates chlortetracycline biosynthesis” (BMC Microbiology, 2019)

Columns and labels:
[1] = target: T1, CtcS (Kitasatospora aureofaciens, UniProt S4S3A4); assay: competitive EMSA, release of FAM-labelled ctcS-ctcR intergenic DNA probe; assay type: binding; settings: His6-CtcS 40 ng, probe 40 ng, 20 uL, pH 8.0, 0.0015-5 mM compound
T1 sequence (S4S3A4 1-165): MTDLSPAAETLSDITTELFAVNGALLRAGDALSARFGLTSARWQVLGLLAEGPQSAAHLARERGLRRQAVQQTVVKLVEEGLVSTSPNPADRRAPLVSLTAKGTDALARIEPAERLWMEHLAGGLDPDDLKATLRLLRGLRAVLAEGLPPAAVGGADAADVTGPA

[2] = target: His6-tagged recombinant CtcS (Streptomyces aureofaciens F3); assay: SEC; Superdex 200 10/300 column, AKTA FPLC P-920; ovalbumin (44 kD) and lysozyme (14 kD) as standards; purified His6-tagged CtcS

`CN(C)[C@@H]1C(=O)C(C(N)=O)=C(O)[C@@]2(O)C(=O)C3=C(O)c4c(O)ccc(Cl)c4[C@@](C)(O)[C@H]3C[C@@H]12` [chlortetracycline] was tested, and the “competitive EMSA, release of FAM-labelled ctcS-ctcR intergenic DNA probe” value [1] was “the DNA-binding affinity of CtcS would be decreased by the presence of TC and CTC”.
In the case of `CN(C)[C@@H]1C(=O)C(C(N)=O)=C(O)[C@@]2(O)C(=O)C3=C(O)c4c(O)cccc4[C@@](C)(O)[C@H]3C[C@@H]12` [tetracycline], the “competitive EMSA, release of FAM-labelled ctcS-ctcR intergenic DNA probe” value [1] is reported as “the DNA-binding affinity of CtcS would be decreased by the presence of TC and CTC”.
Work on “His6-tagged recombinant CtcS (natural protein)” yielded a stoichiometry N [2] of 2.
